The source of these data is patent US11479556B1, “Bifunctional compounds for degrading BTK via ubiquitin proteosome pathway” (NURIX THERAPEUTICS, INC., priority 2018, dated 2022).

What is called DC50 is the midpoint of the concentration-degradation curve. Higher therefore signals degradation only at high concentration.

T1 sequence (Q06187 whole entry): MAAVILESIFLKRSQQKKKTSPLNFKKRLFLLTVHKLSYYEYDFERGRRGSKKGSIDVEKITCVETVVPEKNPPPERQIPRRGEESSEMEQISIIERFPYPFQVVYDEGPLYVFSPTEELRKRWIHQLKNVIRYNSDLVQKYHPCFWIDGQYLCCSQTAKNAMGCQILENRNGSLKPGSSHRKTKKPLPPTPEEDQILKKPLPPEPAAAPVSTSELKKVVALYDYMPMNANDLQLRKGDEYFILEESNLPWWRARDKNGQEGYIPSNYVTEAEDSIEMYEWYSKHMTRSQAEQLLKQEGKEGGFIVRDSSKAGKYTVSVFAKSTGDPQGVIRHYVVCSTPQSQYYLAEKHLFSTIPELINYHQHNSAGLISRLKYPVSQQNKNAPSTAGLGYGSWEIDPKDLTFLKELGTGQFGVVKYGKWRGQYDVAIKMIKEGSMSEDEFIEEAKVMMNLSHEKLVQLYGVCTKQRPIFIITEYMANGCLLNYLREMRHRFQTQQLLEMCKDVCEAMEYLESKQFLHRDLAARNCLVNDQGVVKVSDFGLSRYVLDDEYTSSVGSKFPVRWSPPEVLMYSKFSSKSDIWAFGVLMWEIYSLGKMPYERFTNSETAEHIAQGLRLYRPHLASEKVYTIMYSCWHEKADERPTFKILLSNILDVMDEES

This assay has as its target T1, BTK (Homo sapiens, UniProt Q06187).
T1 construct: endogenous in cells; host or cells: TMD8 cells
Kind of assay: Cellular BTK HTRF assay (BTK degradation) in TMD8 cells. The class given is cell-based. The note with it: four hours incubation, Total-BTK HTRF relative to DMSO-treated cells. Here is the method:
Example 66: BTK Degradation Assay
TMD8 cells were obtained from Tokyo Medical and Dental University and were grown in alpha-MEM (Fisher 12571063) supplemented with 10% heat-inactivated FBS (Corning Premium Fetal Bovine Serum from Fisher, MT35015CV).
Compounds of the present invention were added to 50,000 TMD8 cells in round-bottom 96 well plates with a final DMSO concentration of […] and were incubated at 37° C. 5% CO2 for four hours. BTK levels were determined using Cisbio Total-BTK HTRF ([…] Time-Resolved Fluorescence) kit (63ADK064PEG) according to manufacturer's protocol. Briefly, cells were incubated in 1× supplied lysis buffer for 30 minutes. In an opaque white low volume 96 well plate (Cisbio, 66PL96005), cell lysate was combined with two different specific BTK antibodies, one conjugated with Eu^3+-Cryptate FRET donor and one conjugated with d2 FRET acceptor. Assay controls include wells containing cell lysate with only the Eu^3+-Cryptate FRET donor antibody and wells containing both HTRF antibodies and lysis buffer without cells or control lysate provided by Cisbio. HTRF ratio was calculated as (acceptor signal at 665 nm/donor signal at 620 nm)×10^4. Background HTRF levels were determined from the control well containing the donor, but no acceptor, antibody. Background HTRF levels were subtracted from all samples. Readouts were reported as HTRF levels relative to HTRF levels of DMSO-treated cells. Four-parameter non-linear regressions were performed in GraphPad Prism 7.02 to obtain DC50 values. DC50 values are provided in Table 3, wherein A<5.0 nM, 5.0 nM≤B≤15 nM, and 15 nM<C.
(In general: TR-FRET usually uses a lanthanide donor and a delayed reading to cut background.)
`CN1CCN([C@@H]2CCCN(c3cnc(C(N)=O)c(Nc4ccc(N5CC[C@@H]6CCN(Cc7ccc8c(c7)C(=O)N(N7CCC(=O)NC7=O)C8=O)C[C@@H]6C5)cc4)n3)C2)C1=O` [Compound 95] came in with a DC50 of 5 to 15 nM.
`CN1CCN([C@@H]2CCCN(c3cnc(C(N)=O)c(Nc4ccc(N5CCCC6(C5)CN(c5cccc7c5C(=O)N(C5CCC(=O)NC5=O)C7=O)C6)cc4)n3)C2)C1=O` (stereo partly shown) [Compound 96] displayed a DC50 of over 15 nM.
As for `CN1CCN([C@H]2CCCN(c3cnc(C(N)=O)c(Nc4ccc(N5CCC6(CC5)CN(c5cccc7c5C(=O)N(C5CCC(=O)NC5=O)C7=O)C6)cc4)n3)C2)C1=O` (stereo partly shown) [Compound 97], the DC50 is over 15 nM.
The same measure for `CN1CCN([C@H]2CCCN(c3cnc(C(N)=O)c(Nc4ccc(N5CCN(CC#Cc6ccc7c(c6)C(=O)N(C6CCC(=O)NC6=O)C7)CC5)cc4)n3)C2)C1=O` (stereo partly shown) [Compound 98]: under 5 nM.
In turn, `CN1CCN([C@@H]2CCCN(c3cnc(C(N)=O)c(Nc4ccc(N5CCN(Cc6ccc7c(c6)C(=O)N(C6CCC(=O)NC6=O)C7=O)CC5)cc4)n3)C2)C1=O` (stereo partly shown) [Compound 100] had a DC50 of over 15 nM.
To `CN1CCN([C@@H]2CCCN(c3cnc(C(N)=O)c(Nc4ccc(N5CCN(C6CN(Cc7ccc8c(c7)C(=O)N(C7CCC(=O)NC7=O)C8=O)C6)CC5)cc4)n3)C2)C1=O` (stereo partly shown) [Compound 101] belongs under 5 nM; to `CN1CCN([C@H]2CCCN(c3cnc(C(N)=O)c(Nc4ccc(C5(C)CCN([C@H]6C[C@@H](Nc7cccc8c7C(=O)N(C7CCC(=O)NC7=O)C8=O)C6)CC5)cc4)n3)C2)C1=O` (stereo partly shown) [Compound 102], under 5 nM; to `CN1CCN([C@H]2CCCN(c3cnc(C(N)=O)c(Nc4ccc(C5(C)CCN([C@H]6C[C@H](Nc7cccc8c7C(=O)N(C7CCC(=O)NC7=O)C8=O)C6)CC5)cc4)n3)C2)C1=O` (stereo partly shown) [Compound 103], under 5 nM.
`CN1CCN([C@@H]2CCCN(c3cnc(C(N)=O)c(Nc4ccc(N5CCC6CCN(Cc7ccc8c(c7)C(=O)N(N7CCC(=O)NC7=O)C8=O)CC6C5)cc4)n3)C2)C1=O` (stereo partly shown) [Compound 104] had a DC50 of 5 to 15 nM.
To `CN1CCN([C@@H]2CCCN(c3cnc(C(N)=O)c(Nc4ccc(N5CCC6CCN(c7cccc8c7C(=O)N(N7CCC(=O)NC7=O)C8=O)CC6C5)cc4)n3)C2)C1=O` (stereo partly shown) [Compound 105] belongs over 15 nM.
The same measure for `CN1CCN([C@H]2CCCN(c3cnc(C(N)=O)c(Nc4ccc(N5CC[C@H]6CCN(c7ccc8c(c7)C(=O)N(N7CCC(=O)NC7=O)C8=O)C[C@H]6C5)cc4)n3)C2)C1=O` [Compound 106]: 5 to 15 nM.
To `CN1CCN([C@H]2CCCN(c3cnc(C(N)=O)c(Nc4ccc(N5CC[C@@H]6CCN(c7ccc8c(c7)C(=O)N(N7CCC(=O)NC7=O)C8=O)C[C@H]6C5)cc4)n3)C2)C1=O` [Compound 107] belongs over 15 nM; to `CN1CCN([C@H]2CCCN(c3cnc(C(N)=O)c(Nc4ccc(N5CCC6(CCCN(Cc7ccc8c(c7)C(=O)N(N7CCC(=O)NC7=O)C8=O)C6)CC5)cc4)n3)C2)C1=O` [Compound 108], 5 to 15 nM.
`CN1CCN([C@H]2CCCN(c3cnc(C(N)=O)c(Nc4ccc(N5CCC6(CC5)CCN(c5ccc7c(c5)C(=O)N(C5CCC(=O)NC5=O)C7=O)C6)cc4)n3)C2)C1=O` (stereo partly shown) [Compound 109] gave a DC50 of under 5 nM.
Take `CN1CCN([C@H]2CCCN(c3cnc(C(N)=O)c(Nc4ccc(N5CCN(CCCCc6cccc7c6CN(C6CCC(=O)NC6=O)C7=O)CC5)nc4)n3)C2)C1=O` (stereo partly shown) [Compound 110]: the DC50 is under 5 nM.
Consider `CN1CCN([C@H]2CCCN(c3cnc(C(N)=O)c(Nc4ccc(N5CCCC6(C5)CN(c5ccc7c(c5)C(=O)N(C5CCC(=O)NC5=O)C7=O)C6)cc4)n3)C2)C1=O` (stereo partly shown) [Compound 111], for which the DC50 was 5 to 15 nM.
`CN1CCN([C@H]2CCCN(c3cnc(C(N)=O)c(Nc4ccc(N5CCC6(CC5)CN(c5ccc7c(c5)C(=O)N(N5CCC(=O)NC5=O)C7=O)C6)cc4)n3)C2)C1=O` [Compound 112] displayed a DC50 of under 5 nM.
For the compound `CN1CCN([C@@H]2CCCN(c3cnc(C(N)=O)c(Nc4ccc(N5CCN(C[C@H]6CCN(c7ccc8c(c7)C(=O)N(C7CCC(=O)NC7=O)C8=O)C6)CC5)nc4)n3)C2)C1=O` (stereo partly shown) [Compound 113], the DC50 was under 5 nM.
The same measure for `CN1CCN([C@@H]2CCCN(c3cnc(C(N)=O)c(Nc4ccc(N5CC6CN(CC7CCN(c8ccc9c(c8)C(=O)N(N8CCC(=O)NC8=O)C9=O)CC7)CC6C5)cc4)n3)C2)C1=O` (stereo partly shown) [Compound 114]: under 5 nM; for `CN1CCN([C@@H]2CCCN(c3cnc(C(N)=O)c(Nc4ccc(C5CCN(C[C@H]6CCN(c7ccc8c(=O)n(C9CCC(=O)NC9=O)ccc8c7)C6)CC5)cc4)n3)C2)C1=O` (stereo partly shown) [Compound 115]: under 5 nM.
The same measure for `CN1CCN([C@@H]2CCCN(c3cnc(C(N)=O)c(Nc4ccc(C5CCN(CC6CN(c7ccc8c(=O)n(C9CCC(=O)NC9=O)ccc8c7)C6)CC5)cc4)n3)C2)C1=O` (stereo partly shown) [Compound 116]: under 5 nM; for `CN1CCN([C@@H]2CCCN(c3cnc(C(N)=O)c(Nc4ccc(C5CCN(C[C@H]6CCN(c7ccc8c(c7)CN(C7CCC(=O)NC7=O)C8=O)C6)CC5)cc4)n3)C2)C1=O` (stereo partly shown) [Compound 117]: under 5 nM.
For the compound `CN1CCN([C@@H]2CCCN(c3cnc(C(N)=O)c(Nc4ccc(C5CN(CC6CCN(c7cnn(C8CCC(=O)NC8=O)c(=O)c7)CC6)C5)cc4)n3)C2)C1=O` (stereo partly shown) [Compound 118], the DC50 is under 5 nM.
On to `CN1CCN([C@@H]2CCCN(c3cnc(C(N)=O)c(Nc4ccc(C5CN(CC6CCN(c7ccc(-c8nn(C9CCC(=O)NC9=O)c(=O)n8C)cc7)CC6)C5)cc4)n3)C2)C1=O` (stereo partly shown) [Compound 119], for which the DC50 was under 5 nM.
`CN1CCN([C@@H]2CCCN(c3cnc(C(N)=O)c(Nc4ccc(C5CCN(CC6CCN(c7cnn(C8CCC(=O)NC8=O)c(=O)c7)CC6)CC5)cc4)n3)C2)C1=O` (stereo partly shown) [Compound 120] showed a DC50 of under 5 nM.
The same measure for `CN1CCN([C@@H]2CCCN(c3cnc(C(N)=O)c(Nc4ccc(C5CCN(CC6CCN(c7ccc(-c8nn(C9CCC(=O)NC9=O)c(=O)n8C)cc7)CC6)CC5)cc4)n3)C2)C1=O` (stereo partly shown) [Compound 121]: under 5 nM.
Regarding `NC(=O)c1ncc(N2CCC[C@H](N3CCCC3=O)C2)nc1Nc1ccc(C2CCN(CC3CCN(c4ccc5c(c4)CCN(C4CCC(=O)NC4=O)C5=O)CC3)CC2)cc1` (stereo partly shown) [Compound 122], the DC50 was under 5 nM.
Compound `NC(=O)c1ncc(N2CCCCC2)nc1Nc1ccc(N2CCC3(CC2)CCN(c2ccc4c(c2)C(=O)N(C2CCC(=O)NC2=O)C4=O)CC3)cc1` (stereo not shown) [Compound 124] registered a DC50 of over 15 nM.
`NC(=O)c1ncc(-n2cccn2)nc1Nc1ccc(C2CCN(C[C@H]3CCN(c4ccc5c(c4)C(=O)N(C4CCC(=O)NC4=O)C5=O)C3)CC2)cc1` (stereo partly shown) [Compound 125] came in with a DC50 of under 5 nM.
In the case of `NC(=O)c1ncc(N2CCCC3(COC3)C2)nc1Nc1ccc(C2CCN(C[C@H]3CCN(c4ccc5c(c4)C(=O)N(C4CCC(=O)NC4=O)C5=O)C3)CC2)cc1` (stereo partly shown) [Compound 126], the DC50 was under 5 nM.
The same measure for `NC(=O)c1ncc(-n2ccc(C(F)(F)F)n2)nc1Nc1ccc(C2CCN(CC3CCN(c4ccc5c(=O)n(C6CCC(=O)NC6=O)ccc5c4)CC3)CC2)cc1` (stereo not shown) [Compound 127]: over 15 nM.
To `NC(=O)c1ncc(-n2ccc(C(F)(F)F)n2)nc1Nc1ccc(C2CCN(C[C@H]3CCN(c4ccc5c(c4)C(=O)N(C4CCC(=O)NC4=O)C5=O)C3)CC2)cc1` (stereo partly shown) [Compound 128] belongs over 15 nM.
In turn, `CN1CCN([C@H]2CCCN(c3cnc(C(N)=O)c(Nc4ccc(C5CCN(CC6CCN(c7ccc(NC8CCC(=O)NC8=O)cn7)CC6)CC5)cc4)n3)C2)C1=O` (stereo partly shown) [Compound 129] gave a DC50 of under 5 nM.
`CN1CCN([C@H]2CCCN(c3cnc(C(N)=O)c(Nc4ccc(C5CCN(CC6CCN(c7ccc(C(=O)NC8CCC(=O)NC8=O)cc7)CC6)CC5)cc4)n3)C2)C1=O` (stereo partly shown) [Compound 130] registered a DC50 of under 5 nM.
The compound `Cn1cc(Nc2nc(N3CCC[C@H](N4CC5(CN(CC6CCN(c7ccc(NC8CCC(=O)NC8=O)nc7)CC6)C5)OC4=O)C3)cnc2C(N)=O)cn1` (stereo partly shown) [Compound 132] gave a DC50 of under 5 nM.
In the case of `NC(=O)c1ncc(N2CCCCC2)nc1Nc1ccc(C2CCN(CC3CCN(c4ccc5c(=O)n(C6CCC(=O)NC6=O)ccc5c4)CC3)CC2)cc1` (stereo not shown) [Compound 133], the DC50 was under 5 nM.
To `CN1CCN([C@@H]2CCCN(c3cnc(C(N)=O)c(Nc4ccc(C5CCN(C[C@H]6CCN(c7ccc8c(=O)n(C9CCC(=O)NC9=O)ccc8c7)C6)CC5)cc4)n3)C2)C1=O` (stereo partly shown) [Compound 134] belongs under 5 nM; to `Cn1c(-c2ccc(N3CC(CN4CCC(c5ccc(Nc6nc(N7CCC[C@H](N8CCCC8=O)C7)cnc6C(N)=O)cc5)CC4)C3)cc2)nn(C2CCC(=O)NC2=O)c1=O` (stereo partly shown) [Compound 135], under 5 nM; to `CN1CCN([C@H]2CCCN(c3cnc(C(N)=O)c(Nc4ccc(C5CCN(CC6CN(c7ccc(-c8nn(C9CCC(=O)NC9=O)c(=O)n8C)cc7)C6)CC5)cc4)n3)C2)C1=O` (stereo partly shown) [Compound 136], under 5 nM.
To `Cn1cc(Nc2nc(N3CCC[C@@H](N4CCC5(CN(CC6CCN(c7ccc8c(c7)C(=O)N(C7CCC(=O)NC7=O)C8=O)CC6)C5)C4=O)C3)cnc2C(N)=O)cn1` (stereo partly shown) [Compound 137] belongs under 5 nM.
